The values below come from ChEMBL document CHEMBL1148242, “New benzo[5,6]pyrrolizino[1,2-b]quinolines as cytotoxic agents” (Bioorg Med Chem Lett, 2004).

Holding throughout (format): functional, cell-based
In one assay the test system is L1210. The experiment in a line: In vitro cytotoxic activity of compound against mouse leukemia L1210 cell line.
For another assay, the system named is MCF7. The assay can be described thus: In vitro cytotoxic activity of compound against human MCF-7 cell line.
A further assay deals with PC-3. The experiment in a line: In vitro cytotoxic activity of compound against human PC3 cell line.

Broadly, the IC50 is the concentration that gives 50% inhibition. Low values mean inhibition by little substance, high ones a need for much substance. In the case of `CCc1c2c(nc3ccc(OCCN4CCCCC4)cc13)-c1cc3cc(O)ccc3n1C2`, the figures for the IC50 with L1210, in the assay with MCF7 and in the assay with PC-3 were 0.55 µM, 6.3 µM and 4.8 µM, respectively.

For the molecule `Cc1c2c(nc3ccc(OCCN4CCCCC4)cc13)-c1cc3cc(OCCN4CCCCC4)ccc3n1C2`, the IC50 worked out at 0.55 µM with L1210, 4.6 µM in the assay with MCF7 and 5.3 µM in the assay on PC-3.

On to `Cc1c2c(nc3ccc(OCCN4CCCCC4)cc13)-c1cc3cc(O)ccc3n1C2`, for which the IC50 with L1210 turned out to be 0.55 µM; in the assay on MCF7 it was 0.55 µM; in the assay with PC-3, 4.94 µM.

As to `Cc1c2c(nc3ccc(O)cc13)-c1cc3cc(O)ccc3n1C2`, the 50% inhibitory concentration (IC50) was 3.4 µM with L1210, > 50 µM in the assay on MCF7 and > 10 µM in the assay with PC-3.

As to `COc1ccc2c(c1)cc1n2Cc2c-1nc1ccc(O)cc1c2C`, the values for the 50% inhibitory concentration (IC50) in the assay with L1210, with MCF7 and in the assay with PC-3 were 0.6 µM, 12 µM and > 50 µM, respectively.

For `COc1ccc2c(c1)cc1n2Cc2c-1nc1ccc(OCCN3CCCCC3)cc1c2C`, the figures for the half-inhibitory concentration (IC50) in the assay with L1210, in the assay with MCF7 and with PC-3 were 3.93 µM, 5.3 µM and 5.5 µM, respectively.

With `CC[C@@]1(O)C(=O)OCc2c1cc1n(c2=O)Cc2cc3ccccc3nc2-1` [CAMPTOTHECIN], the IC50 in the assay on L1210 amounted to 0.06 µM; in the assay with MCF7 it was 0.32 µM; in the assay on PC-3 it was 0.31 µM.
